Values quoted from earlier work in patent US11470860B2, “Animal feeds containing specific glycolipids” (PATHWAY INTERMEDIATES LIMITED, priority 2016, dated 2022).

Conditions: for stability versus pH: aqueous medium

Structure (SMILES)	stability versus pH	solubility in aqueous medium (dependence on pH)
CC1CCCCCC/C=C\CCCCCCCC(=O)OC2C(CO)OC(OC3C(O1)OC(CO)C(O)C3O)C(O)C2O (stereo not drawn) [lactonised sophorolipids]	stable across a wider pH range	
CC(CCCCCC/C=C\CCCCCCCC(=O)O)OC1OC(CO)C(O)C(O)C1OC1OC(CO)C(O)C(O)C1O (stereo not drawn) [Acidic sophorolipids]	instability at pH higher than 7.0	not readily soluble in aqueous medium at acidic pH but become soluble at higher pH
